Test results as given in a flash point compilation (Sun et al. 2020).

Row | SMILES | flash point [°C]
1 | CCC(C)CC [3-methylpentane] | -32
2 | C=CCC#N [3-butenenitrile] | 21
3 | CCCC#CCCCCCC [4-undecyne] | 66
4 | CCCCCCC(=O)CC [3-nonanone] | 63
5 | CCSC [ethylmethylsulfide] | -18
6 | CCCCCCCN [heptylamine] | 44
7 | C1COCCO1 [1,4-dioxane] | 11
8 | CCCCC(C)O (configuration not stated) [2-hexanol] | 46
9 | C/C=C\CCCC [cis-2-heptene] | -6
10 | CCCCCCN [hexylamine] | 27
11 | CC1CCCC(=O)CCC1 [5-methylcyclooctanone] | 71
12 | CCN(CC)CC [triethylamine] | -9
13 | CCCCCCCCN [octylamine] | 60
14 | CCCCCCCCCC=O [decanal] | 83
15 | CCCCC(=O)O [pentanoicacid] | 85
16 | CCCCCCCCOC(C)=O [octylacetate] | 82
17 | CCCCCCCC(C)=O [2-nonanone] | 68
18 | C=CC(=O)OCC(CC)CCCC (configuration not stated) [2-ethylhexylacrylate] | 86
19 | CCC(O)CO (configuration not stated) [1,2-butanediol] | 93
20 | C=CC(=O)OCCC [propylacrylate] | 24
21 | CCCCN(CCCC)CCCC [tributylamine] | 71
22 | CCCCCC(C)CC (configuration not stated) [3-methyloctane] | 24
23 | CC(C)CCSCCC(C)C [diisopentylsulfide] | 77
24 | CCCCOC [butylmethylether] | -10

Row | SMILES | flash point [°C]
25 | O=Cc1ccco1 [furfural] | 58
26 | COCc1ccccc1 [benzylmethylether] | 53
27 | CCC#CCCCCCCCl [10-chloro-3-decyne] | 86
28 | CCC#CCCCCCC [3-decyne] | 52
29 | C=C(C)C(C)CC (configuration not stated) [2,3-dimethyl-1-pentene] | -17
30 | C=CCOc1ccccc1 [allylphenylether] | 63
31 | CCCCCCCCCCCc1ccccc1 [undecylbenzene] | 144
32 | C/C=C\CCC [cis-2-hexene] | -25
33 | CCOC(=O)CCl [ethylchloroacetate] | 53
34 | CCC1CCC(=O)CC1 [4-ethylcyclohexanone] | 63
35 | CCC(O)CC [3-pentanol] | 33
36 | CC(C)COCCO [2-isobutoxyethanol] | 51
37 | CCC(C)C(C)C(C)(C)C (configuration not stated) [2,2,3,4-tetramethylhexane] | 31
38 | C=CCOC(=O)CCC [allylbutanoate] | 42
39 | COC(=O)c1ccccc1 [methylbenzoate] | 80
40 | Cc1cccc(N)c1C [2,3-dimethylaniline] | 96
41 | CCCC(=O)c1ccccc1 [1-phenyl-1-butanone] | 88
42 | Cc1cccc(C(C)C)c1 [m-isopropyltoluene] | 47
43 | CCCCCC(=O)CC [3-octanone] | 51
44 | CC(C)C1CCC(=O)CC1 [4-isopropylcyclohexanone] | 65
45 | CC(C)C#N [isobutyronitrile] | 8
46 | CCCC(C)(C)C(C)C [2,3,3-trimethylhexane] | 15
47 | C=C(CC)CC [2-ethyl-1-butene] | -26
48 | CCCNCCC [dipropylamine] | 7

Row | SMILES | flash point [°C]
49 | C=CC1CC=CCC1 (configuration not stated) [4-vinyl-1-cyclohexene] | 16
50 | c1ccc(Cc2ccccc2)cc1 [diphenylmethane] | 127
51 | CCCCCBr [1-bromopentane] | 30
52 | CC(C)C(C)C(C)C [2,3,4-trimethylpentane] | -0
53 | CC(C)CC(C)CC(C)C [2,4,6-trimethylheptane] | 31
54 | CC(C)[N+](=O)[O-] [2-nitropropane] | 28
55 | c1ccc2ncccc2c1 [quinoline] | 101
56 | CC/C=C/C(=O)O [trans-2-pentenoicacid] | 102
57 | CCc1ccccc1N [2-ethylaniline] | 85
58 | CCC1CCC(=O)C1 (configuration not stated) [3-ethylcyclopentanone] | 46
59 | CCc1ccccc1 [ethylbenzene] | 21
60 | CCCCCCC(C)CC (configuration not stated) [3-methylnonane] | 41
61 | OCCCCCO [1,5-pentanediol] | 129
62 | CCC(C)(C)O [2-methyl-2-butanol] | 21
63 | CCCCCCOC(=O)CC [hexylpropanoate] | 65
64 | CCOC=O [ethylformate] | -19
65 | CC=C(C)C [2-methyl-2-butene] | -45
66 | COC(C)(C)C [tert-butylmethylether] | -28
67 | ClCc1ccccc1 [benzylchloride] | 60
68 | CCC(=O)O [propionicacid] | 58
69 | CCC(C)c1ccccc1O (configuration not stated) [2-sec-butylphenol] | 107
70 | O=[N+]([O-])c1ccccc1 [nitrobenzene] | 88
71 | CCC(C)SC(C)CC (configuration not stated) [di-sec-butylsulfide] | 39

Second part, the molecule after the results:

Row | flash point [°C] | SMILES
72 | -25 | C/C=C/CCC [trans-2-hexene]
73 | 67 | CC(O)CN (configuration not stated) [1-amino-2-propanol]
74 | 84 | CC1=CC(=O)CC(C)(C)C1 [isophorone]
75 | 38 | CCCCOC(=O)CC [butylpropanoate]
76 | 47 | Cc1ccc(C(C)C)cc1 [p-isopropyltoluene]
77 | 19 | C=C(C)C(=O)OCC [ethylmethacrylate]
78 | 107 | CCCCCCCCc1ccccc1 [octylbenzene]
79 | 50 | CCCCC(CC)CN (configuration not stated) [2-ethyl-1-hexanamine]
80 | 41 | CC(C)CC(C)O (configuration not stated) [4-methyl-2-pentanol]
81 | 5 | CCC#CCCC [3-heptyne]
82 | 84 | CCOC(=O)c1ccccc1 [ethylbenzoate]
83 | -9 | c1ccsc1 [thiophene]
84 | -10 | CC(C)CN [isobutylamine]
85 | 63 | CCCCCC1CCCCC1 [pentylcyclohexane]
86 | 55 | CCCOC(=O)OCCC [dipropylcarbonate]
87 | 43 | O=C1CCCCC1 [cyclohexanone]
88 | 108 | CCC(C)c1ccc(N)cc1 (configuration not stated) [4-sec-butylaniline]
89 | -25 | CCCOCC [ethylpropylether]
90 | 101 | CC(C)(C)c1cccc(N)c1 [3-tert-butylaniline]

Row | flash point [°C] | SMILES
91 | 51 | CCc1cccc(CC)c1 [m-diethylbenzene]
92 | 95 | CC(CC(C)(C)C)CC(C)(C)CC(C)(C)C (configuration not stated) [2,2,4,4,6,8,8-heptamethylnonane]
93 | 43 | SCCCCl [3-chloro-1-propanethiol]
94 | 10 | C=C(C)C(=O)OC [methylmethacrylate]
95 | 93 | CCC(C)Nc1ccccc1 (configuration not stated) [N-sec-butylaniline]
96 | 46 | Cc1ccc(C)c(C)c1 [1,2,4-trimethylbenzene]
97 | -2 | CCC(=O)OC [methylpropanoate]
98 | 15 | CCCC(C)(C)CCC [4,4-dimethylheptane]
99 | 31 | CCC(C)(C(C)C)C(C)C [3-ethyl-2,3,4-trimethylpentane]
100 | 50 | Cc1cccc(Cl)c1 [3-chlorotoluene]
101 | -51 | C=CCCC [1-pentene]
102 | 56 | CCc1cc(C)ccc1C [2-ethyl-1,4-dimethylbenzene]
103 | -47 | C=C(C)CC [2-methyl-1-butene]
104 | 72 | CCCCCCC(C)O (configuration not stated) [2-octanol]
105 | 12 | CCO [ethanol]
106 | -17 | C=C(C)C(C)(C)C [2,3,3-trimethyl-1-butene]
107 | 51 | OC1CCCC1 [cyclopentanol]
108 | 46 | CCC(=O)OCCC(C)C [isopentylpropanoate]
109 | 30 | CCCC(S)CC (configuration not stated) [3-hexanethiol]

Row | flash point [°C] | SMILES
110 | 60 | COC(=O)C1CCCCC1 [methylcyclohexanecarboxylate]
111 | 30 | CC(C)CNCC(C)C [diisobutylamine]
112 | 10 | CC(=O)C(C)=O [2,3-butanedione]
113 | -7 | C#CCCC(C)C [5-methyl-1-hexyne]
114 | 102 | CCCCCC(=O)O [hexanoicacid]
115 | 111 | CCCCCCCCCCCOC(C)=O [undecylacetate]
116 | 15 | CCCC(C)CC(C)C (configuration not stated) [2,4-dimethylheptane]
117 | 82 | C=C(C)C(=O)OC1CCCCC1 [cyclohexylmethacrylate]
118 | 103 | CCC(=O)CCc1ccccc1 [1-phenyl-3-pentanone]
119 | 40 | Cc1ccc(F)cc1C [1,2-dimethyl-4-fluorobenzene]
120 | 33 | CC(N)CN (configuration not stated) [1,2-propanediamine]
121 | 96 | CC=Cc1ccc(OC)cc1 [4-propenylanisole]
122 | 13 | CC(C)CCC(C)(C)C [2,2,5-trimethylhexane]
123 | 24 | C1CCC2OC2C1 (configuration not stated) [cyclohexeneoxide]
124 | 61 | CCCCCCCCCC(C)C [2-methylundecane]
125 | 55 | CCCCC(O)CC (configuration not stated) [3-heptanol]
126 | -6 | C/C=C/CCCC [trans-2-heptene]
127 | 87 | CCCCCC#CCCCCl [1-chloro-4-decyne]
